Test results as given in US20230405130A1, “COMPOSITIONS AND METHODS FOR MODIFYING BACTERIAL GENE EXPRESSION” (priority 2020, published 2023).

Assays:
[1] = system: cultured human intestinal epithelial cells; assay: Toxicity to cultured human intestinal epithelial cells; assay type: cell-based; details: at the doses used for C. difficile inhibition
Water solubility = assay type: physicochemical; details: room temperature
[2] = system: Ribotype 027 C. difficile strain; assay: In vitro anti-C. difficile activity / MIC; assay type: cell-based; details: FIG. 3 legend
Method: (§1) Nanocomplex CAB-964 was complexed to the anti-dnaE ASO (SEQ ID NO:1) as previously described (Hegarty et al., Int J Nanomedicine. 2016 Aug. 1; 11:3607-19; Sharma et al., J Antibiot (Tokyo). 2018 August; 71(8):713-721; herein incorporated by reference in its entirety) and the resulting nanocomplex is called SRPNT. Multiple in vitro tests were performed with SRPNT as well as its parent empty CAB, with CAB CYDE-21 and its derived nanocomplex as comparators. For the pathogen (Hegarty 2016, supra; Sharma 2018, supra) a whole genome-sequenced Ribotype 027 C. difficile strain associated with severe, complicated CDI in human subjects was used.

E. coli = assay: In vitro growth of commensal bacteria: E. coli; assay type: cell-based; details: only at >17× the dosing range to treat C. difficile
Method: as §1

B. fragilis = assay: In vitro growth of commensal bacteria: B. fragilis; assay type: cell-based; details: only at >17× the dosing range to treat C. difficile
Method: as §1

E. faecalis = assay: In vitro growth of commensal bacteria: E. faecalis; assay type: cell-based; details: only at >17× the dosing range to treat C. difficile
Method: as §1

dnaE = dnaE expression after anti-dnaE oligonucleotide treatment (immunoblotting); assay type: cell-based, C. difficile; details: FIG. 2
Method: Studies were performed to identify C. difficile gene targets with the least pathway redundancy, while ensuring ASO specificity (oligonucleotides ≥25 bp in length). […] Five candidate C. difficile gene targets were identified, and dnaE (which encodes the alpha subunit of DNA polymerase III, and is invariant in C. difficile strains) harbored the most favorable translation inhibition potential (confirmed via immunoblotting; FIG. 2). Thus, it was used in further experiments. Specifically, the ASO formulation is a 2′-O-methyl phosphorothioate (PTO) gapmer, which has a good safety record (Shen et al., Antisense Nucleic Acid Drug Dev. 2001 August; 11(4):257-64; Chen et al., Transplantation. 2005 Feb. 27; 79(4):401-8; Nomura et al., Int J Pharm. 2018 Aug. 25; 547(1-2):556-562.).

| Compound | toxicity to cultured human intestinal epithelial cells [1] | solubility (Water solubility) [mg/mL] | anti-C. difficile activity [2] | growth reduction of E. coli (E. coli) [%] | growth reduction of B. fragilis (B. fragilis) [%] | growth reduction of E. faecalis (E. faecalis) [%] | dnaE expression (dnaE) |
| --- | --- | --- | --- | --- | --- | --- | --- |
| c1cc2c([n+](CCCCCCCCCC[n+]3cccc4c3CCCC4)c1)CCCC2 [CAB-964] | non-toxic | 26 | no anti-C. difficile activity | 7 | 7 | 7 | – |
| 5′-G*T*T*C*A*T*TAAA TCACC TCC T*G*C*T*T*T*A3′ (GTTCATTAAATCACCTCCTGCTTT; listed as DNA, chemistry not fully specified) [anti-dnaE oligonucleotide, 2′-O-methyl phosphorothioate (PTO) gapmer ASO targeting dnaE] | – | – | – | – | – | – | decreases dnaE expression |
